Test [1] concerns the target Beta-2 adrenergic receptor (Homo sapiens, UniProt P07550). The test can be described thus: Displacement of [125I]CYP from human adrenergic beta 2 receptor transfected in CHO cells in presence of 100 uM GTP. It counts as cell-based. (Loss of bound radioactivity is the signal in a displacement assay; it reports binding, not function.)
Test [2] addresses T1, Beta-3 adrenergic receptor (Homo sapiens, UniProt P13945). The test is described as follows: Efficacy at human adrenergic beta 3 receptor transfected in CHO cells assessed as stimulation of adenylyl cyclase at 100 uM relative to isoproterenol. It counts as functional, cell-based.
Target sequence in this assay (P13945 whole entry, looked up): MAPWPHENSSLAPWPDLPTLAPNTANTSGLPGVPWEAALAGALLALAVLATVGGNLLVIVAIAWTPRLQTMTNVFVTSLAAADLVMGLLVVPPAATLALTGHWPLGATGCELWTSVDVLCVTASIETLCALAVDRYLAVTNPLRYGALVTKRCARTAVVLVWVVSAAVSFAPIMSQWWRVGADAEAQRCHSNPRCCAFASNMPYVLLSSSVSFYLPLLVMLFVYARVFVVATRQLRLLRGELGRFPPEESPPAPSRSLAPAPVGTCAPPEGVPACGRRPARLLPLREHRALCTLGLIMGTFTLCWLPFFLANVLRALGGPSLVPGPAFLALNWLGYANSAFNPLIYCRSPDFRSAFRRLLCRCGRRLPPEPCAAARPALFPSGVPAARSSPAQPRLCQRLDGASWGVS
Test [3] concerns the target Beta-1 adrenergic receptor (Homo sapiens, UniProt P08588). The test can be described thus: Displacement of [125I]CYP from human adrenergic beta 1 receptor transfected in CHO cells in presence of 100 uM GTP. The class given is cell-based.
Test [4] deals with T1, Beta-3 adrenergic receptor. The test can be described thus: Displacement of [125I]CYP from human adrenergic beta 3 receptor transfected in CHO cells in presence of 100 uM GTP. It counts as cell-based.
Target sequence in this assay (P13945 whole entry): as the sequence (P13945 whole entry, looked up) above

Bounds are passed on as bounds.

Sequence of Beta-2 adrenergic receptor (P07550 whole entry): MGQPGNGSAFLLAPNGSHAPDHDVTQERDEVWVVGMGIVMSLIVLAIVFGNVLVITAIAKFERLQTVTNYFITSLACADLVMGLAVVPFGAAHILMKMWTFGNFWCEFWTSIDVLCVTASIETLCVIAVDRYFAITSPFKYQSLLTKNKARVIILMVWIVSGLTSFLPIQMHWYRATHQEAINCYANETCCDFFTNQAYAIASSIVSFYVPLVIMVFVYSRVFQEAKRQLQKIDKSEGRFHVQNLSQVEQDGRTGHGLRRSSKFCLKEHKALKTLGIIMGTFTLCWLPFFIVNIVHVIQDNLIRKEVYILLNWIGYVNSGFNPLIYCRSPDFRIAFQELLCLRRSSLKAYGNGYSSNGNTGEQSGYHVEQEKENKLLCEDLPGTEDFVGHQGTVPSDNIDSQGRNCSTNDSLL
Sequence of Beta-1 adrenergic receptor (P08588 whole entry): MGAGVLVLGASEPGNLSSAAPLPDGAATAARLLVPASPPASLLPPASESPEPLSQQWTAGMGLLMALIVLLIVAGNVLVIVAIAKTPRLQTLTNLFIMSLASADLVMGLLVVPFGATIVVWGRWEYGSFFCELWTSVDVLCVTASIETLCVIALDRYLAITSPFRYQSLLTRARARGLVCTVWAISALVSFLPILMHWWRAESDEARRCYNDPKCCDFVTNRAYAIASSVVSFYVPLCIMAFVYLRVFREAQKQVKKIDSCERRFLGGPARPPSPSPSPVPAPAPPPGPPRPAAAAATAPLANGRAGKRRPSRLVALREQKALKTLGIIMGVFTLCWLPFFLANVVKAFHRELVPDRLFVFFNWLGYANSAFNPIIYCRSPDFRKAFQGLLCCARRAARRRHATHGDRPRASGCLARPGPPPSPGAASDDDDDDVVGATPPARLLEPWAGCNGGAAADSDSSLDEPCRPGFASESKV

`C[C@H](Cc1ccc(OCC(=O)O)cc1)NC[C@H](O)c1cccc(Cl)c1` (racemic): the Ki – broadly, a measure of affinity in units of concentration, obtained from inhibition or displacement – in test [1] stood at 2850 nM.
As for `CCCCOc1ccc(C[C@@H](C)NC[C@@H](O)c2cc(Br)no2)cc1`, in test [2], the Efficacy came out at 31%. Moreover, the results for the Ki in test [3], in test [1] and in test [4] were 2160 nM, 458 nM and 10700 nM, respectively.
On to `CCCCOc1ccc(C[C@@H](C)NC[C@H](O)c2cc(Br)no2)cc1`, for which, in test [2], the Efficacy came out at 51%. Besides, the Ki in test [3] is 66.7 nM; in test [1], 15.5 nM; in test [4], 2490 nM.
Consider `C[C@H](Cc1ccc(OCC(=O)O)cc1)NC[C@@H](O)c1cc(Br)no1`, for which the Efficacy in test [2] worked out at 34%. In addition, the Ki in test [3] is 6460 nM; in test [1], 501 nM; in test [4] it was above 50000 nM.
Consider `CCOC(=O)COc1ccc(C[C@@H](C)NC[C@H](O)c2cc(Br)no2)cc1`, for which the Efficacy in test [2] was found to be 56%. Also, the figures for the Ki in test [3], in test [1] and in test [4] were 23.2 nM, 2.82 nM and 10100 nM, respectively.
Consider `CCOC(=O)COc1ccc(C[C@@H](C)NC[C@@H](O)c2cc(Br)no2)cc1`, for which the Efficacy in test [2] amounted to 39%. In addition, the Ki amounted to 1110 nM in test [3], 81.4 nM in test [1] and 21800 nM in test [4].
In the case of `C[C@H](Cc1ccc(OCC(=O)O)cc1)NC[C@H](O)c1cc(Br)no1`, the Efficacy in test [2] is 50%. The Ki in test [3] stood at 61.1 nM; in test [1], 13.9 nM; in test [4], 22000 nM.
As for `CC(C)(C)NCC(O)c1cc(NS(C)(=O)=O)no1` (racemic), the inhibition constant Ki in test [3], in test [1] and in test [4] was above 100000 nM throughout.

For the origin of these results see ChEMBL document CHEMBL1142923, “Novel chiral isoxazole derivatives: synthesis and pharmacological characterization at human beta-adrenergic receptor subtypes” (Bioorg Med Chem, 2007).
